Measurements taken from patent US20170224679A1, “Use of CXCR2 Antagonists For The Prevention and/or Treatment of Chemotherapy Induced Peripheral Neuropathy (CIPN)” (GlaxoSmithKline Intellectual Property Development Limited, priority 2014, published 2017).

Key:
[1] = biological target: T1, CXCR2 receptor (Homo sapiens, UniProt P25025); experiment: CXCR2 Tango assay; type: cell-based; parameters: fused on or other part: TEV protease cleavage site and Gal4-VP16 transcription factor fused to the receptor (Invitrogen Tango construct); no part of the key; details: Tango reporter gene, 80 nM hCXCL1; read-out: pIC50 against the CXCR2 receptor (converted)
T1 sequence (P25025 1-360): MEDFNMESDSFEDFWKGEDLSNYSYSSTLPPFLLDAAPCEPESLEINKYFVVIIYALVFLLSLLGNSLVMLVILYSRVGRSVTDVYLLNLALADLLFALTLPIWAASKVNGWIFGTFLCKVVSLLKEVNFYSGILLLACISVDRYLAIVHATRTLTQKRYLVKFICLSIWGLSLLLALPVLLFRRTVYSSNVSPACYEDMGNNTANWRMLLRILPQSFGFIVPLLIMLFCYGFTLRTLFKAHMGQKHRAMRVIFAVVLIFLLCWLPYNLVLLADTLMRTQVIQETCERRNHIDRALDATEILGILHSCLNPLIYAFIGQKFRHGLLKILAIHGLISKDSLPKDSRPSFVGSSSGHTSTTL
Excerpt: The assay measures ligand-induced activation of the receptor CXCR2 in a stable cell line containing the recombinant human CXCR2 linked to a TEV protease site and a Gal4-VP16 transcription factor (Invitrogen). Ligand binding to the receptor results in the recruitment of arrestin proteins (tagged with protease) to the receptor and triggers the release of a tethered transcription factor. The transcription factor enters the nucleus and activates the transcription of the reporter gene. The ability of a compound to inhibit CXCR2 activation is indirectly assessed by measuring the reporter gene activity.
A vial of cryopreserved cells was removed from liquid nitrogen and rapidly thawed in a water bath at 37° C. with gentle agitation. The cell contents were collected and resuspended in Assay Medium at a density of ˜200,000 cells/ml. All test compounds were dissolved in DMSO at a concentration of 10 mM and then were serially diluted to generate a 10-point dose response curve into 384-well assay plate (Greiner 781090) using an Echo (Labcyte) concentration-response program (50 nl/well). The cell-free, un-stimulated and positive controls were loaded with 50 nl/well pure DMSO to ensure that the DMSO concentration was constant across the plate for all assays. Using Multi-drop Combi (Thermo) with standard cassette, 50 μl of Assay Medium was added to cell-free control wells in compound-containing assay plate; 50 μl of the cell suspension without hCXCL1 (a CXCR2 ligand) was added to un-stimulated control wells (10,000 cells per well); and 50 μl of the cell suspension with 80 nM hCXCL1 was added to the rest of wells of the assay plate (10,000 cells per well). The cells were incubated overnight at 37° C./5% CO2·10 μl of 6× substrate mixture (LiveBLAzer™-FRET B/G substrate (CCF4-AM) Cat #K1096 from Invitrogen, Inc.) was added to each well using Multi-drop Combi (Thermo) with small-tube cassette and the plate was incubated at room temperature for 2 h in the dark. The plate was then read on EnVision using one excitation channel (409 nm) and two emission channels (460 nm and 530 nm).
The blue/green emission ratio (460 nm/530 nm) was calculated for each well by dividing the background-subtracted Blue emission values by the background-subtracted Green emission values. The dose response curve was based on sigmoidal dose-response model. All ratio data was normalized based upon the maximum emission ratio of positive control (hCXCL1) and minimum emission ratio of negative control (DMSO) on each plate.

[2] = biological target: T2, CXCR1 receptor (Homo sapiens, UniProt P25024); experiment: Receptor binding assay ([125I] IL-8 SPA), CXCR1; parameters: expressed in transfected cells; host or cells: CHO cells (membranes); details: [125I] IL-8 binding, CHO-CXCR1 membranes; read-out: pIC50 against the CXCR1 receptor (converted)
T2 sequence (P25024 1-350): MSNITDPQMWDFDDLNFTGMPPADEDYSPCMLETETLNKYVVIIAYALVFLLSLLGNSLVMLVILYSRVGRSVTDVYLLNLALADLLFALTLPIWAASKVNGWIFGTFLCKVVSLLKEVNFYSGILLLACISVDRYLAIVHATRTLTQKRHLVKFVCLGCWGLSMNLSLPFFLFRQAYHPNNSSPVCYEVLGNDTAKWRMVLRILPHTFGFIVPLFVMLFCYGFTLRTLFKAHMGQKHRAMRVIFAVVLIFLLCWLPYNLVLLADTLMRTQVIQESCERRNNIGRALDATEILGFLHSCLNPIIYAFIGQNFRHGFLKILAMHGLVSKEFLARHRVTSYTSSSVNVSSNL
Description: [^125I] IL-8 (human recombinant, IM249) was obtained from Amersham Corp., Arlington Heights, Ill., with specific activity 2000 Ci/mmol. All other chemicals were of analytical grade. High levels of recombinant human CXCR1 and CXCR2 receptors were individually expressed in Chinese hamster ovary (CHO) cells as described in Holmes, et al., Science, 1991, 253, 1278, incorporated herein to the extent required to perform the present assay. The Chinese hamster ovary membranes were prepared according to Haour, et al., J. Biol. Chem., 249 pp 2195-2205 (1974), incorporated herein to the extent required to perform the present assay, except that the homogenization buffer was changed to 40 mM Tris-HCL pH 7.5 containing 1 mM MgSO4, 0.5 mM EDTA (ethylene-diaminetetra-acetic acid), 1 mM PMSF (α-toluene-sulphonyl fluoride), 2.5 mg/L Leupeptin and 0.1 mg/ml Aprotinin. Membrane protein concentration was determined using Bio-Rad Reagent using bovine serum albumin as a standard. All binding assays were conducted using Scintillation Proximity Assay (SPA assay) using wheatgerm agglutinin beads in a 96-well micro plate (optiplate 96, Packard) format. […] The 96-well plates were incubated on a shaking platform for 1 hour. At the end of the incubation the plates were spun for 5 min at 2000 RPM, and counted in a Top Count counter.

[3] = system: Sprague-Dawley rats; experiment: CXCR2 antagonist effect on repeat dosing oxaliplatin induced sensory injury rat; details: Veh/Oxa rats, 4 mg/kg i.p. twice per week for 4 weeks, Day 29-31, mean±SEM
Description: Male Sprague-Dawley rats (109-167 g, ˜5weeks old) were housed in cages in groups of three in a controlled environment of constant temperature and moisture (temperature: 25±3° C., light: dark cycle of 12:12 hours) with food (25 g/rat/day of LabDiet 5053) and water available ad libitum.
MC (Sigma Cat #423238) was made up in water at 1% (w/v) (1 g per 100 mL water) and left on a stirrer until completely dissolved. The formulation was prepared every 6-8 days in 400-700 mL each time and stored at 4° C. protected from light. The dosing volume used was 10 mL/kg to give a 20 mg/kg p.o. dose. Vehicle treated animals were dosed b.i.d. with 1% MC w/v at 10 mL/kg p.o.
A fresh solution was prepared before every injection. Control vehicle animals were treated with 5% w/v Gluclose at 5ml/kg. Glucose (Sigma Aldrich Cat #G7021) was made up in milli-Q water at 5% (w/v) (5 g per 100 mL water) and left on a stirrer until completely dissolved.
Body weight tracking: The bodyweights of rats were measured twice a week for 4 weeks on Days 1, 3, 9, 11, 16, 18, 23, and 25. […]
Rats were anesthetized with chloral hydrate (350 mg/kg, 3.5 mL/kg, i.p.). […] The right sciatic nerve was carefully identified and conduction velocity was measured by recording action potentials from an electrode placed between the second and third digits as described by Jamieson et al., Br. J. Cancer, 88(12):1942-7 (2003), and electrically stimulating the nerve (5V, 0.5 s, single-wave pulses) via a platinum wire electrode at the sciatic notch and ankle. The length between the sciatic notch and ankle was measured.
The nerve conduction velocity was calculated as the length between sciatic notch and ankle divided by the difference between the time latencies at the stimulation sites [latency (sciatic notch)−latency (ankle)].
A 1 cm segment of the left sciatic nerve (distal end) was located and carefully dissected out. […] The ratio of inner area over entire area of nerve fibers of sciatic nerves was then calculated as an indicator of thickness of myelin sheath of nerves.

[4] = system: HCT116 cell line; experiment: Colorectal cancer cell line proliferation assay, HCT116; type: cell-based; details: HCT116, 72 hours
Description: Cell proliferation assay: Cells were seeded in 96-well plates (Costar) at different cell densities: HCT116, 500 cells per well; Caco-2, 1000 cells per well. Total volume of the medium was 90 μl per well. Cells were incubated for 24 hours at 37° C. and 5% CO2 incubator. […] The final concentration of the Compound of Formula (A) was 8.5 μM. […] The cell proliferation rate was measured by adding 100 μl of CellTiter-Glo™ (Promega) according to the manufacturer's instructions. After 10 minutes of incubation, the cell lysates were transferred into OptiPlate-384 well, the luminescence was recorded by BioTek Synergy™ 4 Hybrid Microplate Reader with Gen5 software. All data points were generated in five replicates. Three independent experiments were performed. […] All data were presented as the mean±standard error of the mean determined from three independent experiments.

SMILES	IC50 [1] [nM]	other results
Cc1c(F)cccc1NC(=O)Nc1ccc(Cl)c(S(=O)(=O)C2CCCNC2)c1O (stereo not shown) [Compound of Formula (B), 1-(4-chloro-2-hydroxy-3-(piperidin-3-ylsulfonyl)phenyl)-3-(3-fluoro-2-methylphenyl)urea]	–	IC50 [2]: 1000 nM
O=C1[O][Pt]2([NH][C@@H]3CCCC[C@H]3[NH]2)[O]C1=O [Oxaliplatin, oxaliplatin]	–	sciatic nerve conduction velocity between sciatic notch and ankle [3]: 35.99±0.59 m/s; pIC50 inhibition of cell proliferation ([4]; oxaliplatin with vehicle, mean±SEM): 6.049±0.016; pIC50 inhibition of cell proliferation in the presence of Compound of Formula (A) ([4]; with Compound of Formula (A) 8.5 μM): 6.05±0.02
CC1=CCC[C@H]1NC(=O)Nc1ccc(Cl)c(S(=O)(=O)[C@]2(C)CCOC2)c1O [Compound of Formula (C), 1-(4-chloro-2-hydroxy-3-(((R)-3-methyltetrahydrofuran-3-yl)sulfonyl)phenyl)-3-((R)-2-methylcyclopent-2-en-1-yl)urea]	1	–
CC1(S(=O)(=O)c2c(Cl)ccc(NC(=O)N[C@@H]3CCC=C3Cl)c2O)CCOCC1 [Compound of Formula (E), (R)-1-(4-chloro-2-hydroxy-3-((4-methyltetrahydro-2H-pyran-4-yl)sulfonyl)phenyl)-3-(2-chlorocyclopent-2-en-1-yl)urea]	1.58	–

Continued, in another order:

IC50 [1] [nM]	SMILES	other results
1	CC1=CCC[C@H]1NC(=O)Nc1ccc(Cl)c(S(=O)(=O)[C@H]2C[C@H](N(C)C)C2)c1O [Compound of Formula (H), 1-(4-chloro-3-((trans-3-(dimethylamino)cyclobutyl)sulfonyl)-2-hydroxyphenyl)-3-((R)-2-methylcyclopent-2-en-1-yl)urea]	–
0.398	CC1=CCC[C@H]1NC(=O)Nc1ccc(Cl)c(S(=O)(=O)C(C)(F)F)c1O [Compound of Formula (I), (R)-1-(4-chloro-3-((1,1-difluoroethyl)sulfonyl)-2-hydroxyphenyl)-3-(2-methylcyclopent-2-en-1-yl)urea]	–
0.2	CC1=CCC[C@H]1NC(=O)Nc1ccc(C#N)c(S(=O)(=O)C(C)(C)C)c1O [Compound of Formula (F), (R)-1-(3-(tert-butylsulfonyl)-4-cyano-2-hydroxyphenyl)-3-(2-methylcyclopent-2-en-1-yl)urea]	–
1	CC1=CCC[C@H]1NC(=O)Nc1ccc(Cl)c(S(=O)(=O)[C@H]2C[C@H](N3CCCC3)C2)c1O [Compound of Formula (G), 1-(4-chloro-2-hydroxy-3-((trans-3-(pyrrolidin-1-yl)cyclobutyl)sulfonyl)phenyl)-3-((R)-2-methylcyclopent-2-en-1-yl)urea]	–
